Among the data in patent US12421206B2, “Aryl-n-aryl derivatives for treating a RNA virus infection” (ABIVAX, priority 2018, dated 2025) are EC50 values, retold here.

For orientation: EC50 means the concentration giving half of the maximal effect.

This assay relates to RSV A2. Briefly: RSV inhibition (cytopathic effect inhibition) using Viral ToxGlo assay in HEp-2 cells. It counts as cell-based. To be noted: human respiratory syncytial virus, RSV A2, MOI 0.5, HEp-2 cells, 72 h p.i. As for the experimental part:
Protocol for Screening Antiviral Compounds for RSV Inhibition and Cytotoxicity Using Viral ToxGlo Assay
HEp-2 cells were maintained in Eagle's minimum essential medium (EMEM) with Earle's BSS adjusted to contain 2 mM L-glutamine, 10% fetal bovine serum, 100 U/ml penicillin and 100 μg/ml streptomycin. For the purposes of the screening assay they were grown to 90% confluency, trypsinized and recovered. The trypsin was neutralised with cell culture media and cells were centrifuged at 150×g for 5 minutes before discarding the supernatant and resuspending cell pellet in assay media (EMEM with Earle's BSS adjusted to contain 2 mM L-glutamine, 2% fetal bovine serum and 100 U/ml penicillin and 100 μg/ml streptomycin). The cells were seeded into white clear-bottomed cell culture plates at a density of 1.5×10^4 cells/well in 50 μl and 4×10^3 cells/well in 25 μl for 96 well plates and 384 well plates respectively. For the media/background control column assay media only was added. Cell plates were placed in a humid chamber and incubated overnight at 37° C./5% CO2. After overnight incubation cells were checked for confluency and healthy appearance.
Test articles were made up at 10× test concentration in a maximum DMSO concentration of 10% (final assay concentration maximal 1% DMSO) and added to the cell plates in volumes of 10 μl for 96 well plates and 5 μl for 384 well plates. For cell control and virus control wells the test article solvent only was added. Virus or assay media for cytotoxicity test wells and media/cell control wells was added immediately after test articles at an MOI of 0.5, 40 or 20 μl for 96 and 384 well plates respectively. Virus suspension was prepared by thawing RSV A2 frozen stocks and diluting to the required concentration of plaque forming units in assay media on ice.
Cell plates were further incubated inside a humid chamber for 72 h p.i at 37° C./5% CO2. After the incubation period cells were observed under the microscope to check for characteristic cytopathic effect in virus control wells and healthy cells in the cell control wells. After plates were adjusted to room temperature 20/40 μl Viral ToxGlo (Promega) was added to each well of the 384/96 well cell plates. Plates were incubated at room temperature, protected from light on a plate rocker for 20 minutes before measuring the luminescence on a spectrophotometer (Biotek Synergy HTX).
RSV inhibition was calculated as percentage of cytopathic effect inhibition relative to the virus control and cytotoxicity as percentage of cell survival relative to cell control wells. This allowed EC50 values to be calculated for each test article where a virus inhibition or cytotoxic dose response was identified.
On the technique in general: Damage to the host cells serves as the signal in cytopathic effect assays.
Regarding `Cc1c(Nc2ccc(OCc3ccccn3)cc2C2CC2)cccc1OP(=O)(O)O` [Compound 109, [3-({2-cyclopropyl-4-[(pyridin-2-yl)methoxy]phenyl}amino)-2-methylphenoxy]phosphonic acid], the EC50 was 48 nM.
The value for `O=C(NCC1CCCCC1)c1ccccc1Nc1ccc(OCc2ccccc2)cc1C1CC1` [Compound 110, 2-{[4-(benzyloxy)-2-cyclopropylphenyl]amino}-N-(cyclohexylmethyl)benzamide] was 59 nM; that for `CN(c1cccc(C(=O)NCCC2CCCCC2)c1)c1ccc(OCc2ccccn2)cc1C1CC1` [Compound 111, N-(2-cyclohexylethyl)-3-({2-cyclopropyl-4-[(pyridin-2-yl)methoxy]phenyl}(methyl)amino)benzamide] was 62 nM; that for `CC(C)CCc1cn(-c2cccc(Nc3ccc(OCc4ccccn4)cc3C3CC3)c2)nn1` [Compound 112, 2-cyclopropyl-N-{3-[4-(3-methylbutyl)-1H-1,2,3-triazol-1-yl]phenyl}-4-[(pyridin-2-yl)methoxy]aniline] was 67 nM.
On to `O=C(NCC1CCCC1)c1ccccc1Nc1ccc(OCc2ccccn2)cc1C1CC1` [Compound 113, N-(cyclopentylmethyl)-2-({2-cyclopropyl-4-[(pyridin-2-yl)methoxy]phenyl}amino)benzamide], for which the half-maximal effective concentration (EC50) was found to be 69 nM.
To `c1ccc(COc2ccc(Nc3cccc(OCCCC4CCCCC4)c3)c(N3CCOCC3)c2)cc1` [Compound 114, 4-(benzyloxy)-N-[3-(3-cyclohexylpropoxy)phenyl]-2-(morpholin-4-yl)aniline] belongs 71 nM; to `O=C(NCCC1CCCCC1)c1ccccc1Nc1ccc(OCc2ccccc2)cc1C1CC1` [Compound 115, 2-{[4-(benzyloxy)-2-cyclopropylphenyl]amino}-N-(2-cyclohexylethyl)benzamide], 83 nM.
As to `O=C(CCC1CCCCC1)Nc1cc(Nc2ccc(OCc3ccccc3)cc2C(F)(F)F)ccc1F` [Compound 116, N-(5-{[4-(benzyloxy)-2-(trifluoromethyl)phenyl]amino}-2-fluorophenyl)-3-cyclohexylpropanamide], the EC50 turned out to be 93 nM.
Take `O=C(NCCC1CCCCC1)c1cc(Nc2ccc(OCc3ccccn3)cc2C2CC2)ccn1` [Compound 117, N-(2-cyclohexylethyl)-4-({2-cyclopropyl-4-[(pyridin-2-yl)methoxy]phenyl}amino)pyridine-2-carboxamide]: the half-maximal effective concentration (EC50) was found to be 98 nM.
For `O=C(NCCC(F)(F)F)c1ccccc1Nc1ccc(OCc2ccccn2)cc1C1CC1` [Compound 120, 2-({2-cyclopropyl-4-[(pyridin-2-yl)methoxy]phenyl}amino)-N-(3,3,3-trifluoropropyl)benzamide], the 50% effective concentration (EC50) was 110 nM.
Turning to `O=S(=O)(CCCC1CCCCC1)c1ccccc1Nc1ccc(OCc2ccccc2)cc1C1CC1` [Compound 122, 4-(benzyloxy)-N-[2-(3-cyclohexylpropanesulfonyl)phenyl]-2-cyclopropylaniline], the concentration for a half-maximal effect (EC50) worked out at 116 nM.
As to `CC(C)CCNC(=O)c1ccccc1Nc1ccc(OCc2ccccn2)cc1C1CC1` [Compound 123, 2-({2-cyclopropyl-4-[(pyridin-2-yl)methoxy]phenyl}amino)-N-(3-methylbutyl)benzamide], the EC50 amounted to 120 nM.
Consider `O=S(=O)(NCCC1CCCCC1)c1cccc(Nc2ccc(OCc3ccccc3)cc2C(F)(F)F)c1` [Compound 124, 3-{[4-(benzyloxy)-2-(trifluoromethyl)phenyl]amino}-N-(2-cyclohexylethyl)benzene-1-sulfonamide], for which the EC50 was 126 nM.
The value for `O=C(CCC1CCCCC1)Nc1cc(Nc2ccc(OCc3ccc(F)cc3)cc2C(F)(F)F)ccc1F` [Compound 125, 3-cyclohexyl-N-[2-fluoro-5-({4-[(4-fluorophenyl)methoxy]-2-(trifluoromethyl)phenyl}amino)phenyl]propanamide] was 130 nM; that for `CC(C)CCc1nc(-c2cccc(Nc3ccc(OCc4ccccn4)cc3C3CC3)c2)no1` [Compound 127, 2-cyclopropyl-N-{3-[5-(3-methylbutyl)-1,2,4-oxadiazol-3-yl]phenyl}-4-[(pyridin-2-yl)methoxy]aniline] was 148 nM.
Regarding `CC(C)NC(=O)c1c(C#N)cccc1Nc1ccc(OCc2ccccc2)cc1C1CC1` [Compound 128, 2-{[4-(benzyloxy)-2-cyclopropylphenyl]amino}-6-cyano-N-(propan-2-yl)benzamide], the EC50 came out at 156 nM.
Regarding `c1ccc(COc2ccc(Nc3cccc(-c4noc(CCC5CCCCC5)n4)c3)c(C3CC3)c2)nc1` [Compound 129, N-{3-[5-(2-cyclohexylethyl)-1,2,4-oxadiazol-3-yl]phenyl}-2-cyclopropyl-4-[(pyridin-2-yl)methoxy]aniline], the half-maximal effective concentration (EC50) is 175 nM.
Turning to `c1ccc(COc2ccc(Nc3cccc(-c4nnc(CCC5CCCCC5)o4)c3)c(C3CC3)c2)nc1` [Compound 130, N-{3-[5-(2-cyclohexylethyl)-1,3,4-oxadiazol-2-yl]phenyl}-2-cyclopropyl-4-[(pyridin-2-yl)methoxy]aniline], the EC50 amounted to 198 nM.
As for `c1ccc(COc2ccc(Nc3cccc(OCCCC4CCCCC4)c3)c(N3CCC3)c2)cc1` [Compound 131, 2-(azetidin-1-yl)-4-(benzyloxy)-N-[3-(3-cyclohexylpropoxy)phenyl]aniline], the EC50 was found to be 204 nM.
To `O=P(O)(O)Oc1cccc(Nc2ccc(OCc3ccccn3)cc2C2CC2)c1` [Compound 133, [3-({2-cyclopropyl-4-[(pyridin-2-yl)methoxy]phenyl}amino)phenoxy]phosphonic acid] belongs 230 nM; to `CC(C)(C)OC(=O)N1CCN(C(=O)c2cccc(Nc3ccc(OCc4ccccn4)cc3C3CC3)c2)CC1` [Compound 134, tert-butyl 4-[3-({2-cyclopropyl-4-[(pyridin-2-yl)methoxy]phenyl}amino)benzoyl]piperazine-1-carboxylate], 281 nM.
Turning to `O=C(O)C(NCCC1CCCCC1)c1cccc(Nc2ccc(OCc3ccccc3)cc2C2CC2)c1` (stereo not shown) [Compound 135, 2-(3-{[4-(benzyloxy)-2-cyclopropylphenyl]amino}phenyl)-2-[(2-cyclohexylethyl)amino]aceticacid], the EC50 turned out to be 292 nM.
To `N#CC1(NC(=O)c2ccccc2Nc2ccc(OCc3ccccn3)cc2C2CC2)CC1` [Compound 136, N-(1-cyanocyclopropyl)-2-({2-cyclopropyl-4-[(pyridin-2-yl)methoxy]phenyl}amino)benzamide] belongs 295 nM.
The value for `c1ccc(COc2ccc(Nc3cccc(OC4CCC4)c3)c(C3CC3)c2)nc1` [Compound 137, N-(3-cyclobutoxyphenyl)-2-cyclopropyl-4-[(pyridin-2-yl)methoxy]aniline] was 300 nM; that for `COC(=O)C(NCCC1CCCCC1)c1cccc(Nc2ccc(OCc3ccccc3)cc2C2CC2)c1` (stereo not shown) [Compound 138, methyl 2-(3-{[4-(benzyloxy)-2-cyclopropylphenyl]amino}phenyl)-2-[(2-cyclohexylethyl)amino]acetate] was 312 nM; that for `Cc1cc(OCc2ccccc2)ccc1Nc1ccccc1C(=O)NCCC1CCCCC1` [Compound 139, 2-{[4-(benzyloxy)-2-methylphenyl]amino}-N-(2-cyclohexylethyl)benzamide] was 329 nM.
As for `C[Si](C)(C)Oc1cccc(Nc2ccc(OCc3ccccn3)cc2C2CC2)c1` [Compound 141, 2-cyclopropyl-4-[(pyridin-2-yl)methoxy]-N-{3-[(trimethylsilyl)oxy]phenyl}aniline], the EC50 came to 352 nM.
As for `O=S(=O)(CCCC1CCCCC1)c1cccc(Nc2ccc(OCc3ccccc3)cc2C2CC2)c1` [Compound 142, 4-(benzyloxy)-N-[3-(3-cyclohexylpropanesulfonyl)phenyl]-2-cyclopropylaniline], the concentration for a half-maximal effect (EC50) was 370 nM.
In the case of `CC(C)Cn1nnc(-c2cccc(Nc3ccc(OCc4ccccn4)cc3C3CC3)c2)n1` [Compound 147, 2-cyclopropyl-N-{3-[2-(2-methylpropyl)-2H-1,2,3,4-tetrazol-5-yl]phenyl}-4-[(pyridin-2-yl)methoxy]aniline], the EC50 was found to be 414 nM.
As for `Cc1cc(OCc2cccnn2)ccc1Nc1cccc(OCCCC2CCCCC2)c1` [Compound 148, N-[3-(3-cyclohexylpropoxy)phenyl]-2-methyl-4-[(pyridazin-3-yl)methoxy]aniline], the 50% effective concentration (EC50) turned out to be 532 nM.
To `c1ccc(COc2ccc(Nc3cccc(SCCCC4CCCCC4)c3)c(C3CC3)c2)cc1` [Compound 149, 4-(benzyloxy)-N-{3-[(3-cyclohexylpropyl)sulfanyl]phenyl}-2-cyclopropylaniline] belongs 555 nM.
